# Measurements reported in patent US20200101056A1, “USE OF ROCK INHIBITORS FOR PROMOTING SINONASAL EPITHELIAL CELL REPAIR” (priority 2018, published 2020).
# Columns and labels:
# Type in all cases: cell-based, human
# [1] = tested on: pNECs monolayers from CRSwNP patients; assay: Wound healing assay (epithelial repair rate) of injured pNECs monolayers from CRSwNP patients; details: 6 h
# Method: diagnosis was performed according to the 2004 AAO-HNS guidelines^31, and patients underwent ESS following failure of medical treatment. Control patients underwent ESS for cerebral spinal fluid leak or non-secreting pituitary adenomas. Exclusion criteria for both groups comprised immune deficiencies, neoplasia, ciliary dyskinesia, cystic fibrosis, and systemic immunosuppression. Tissues obtained during surgery at the level of anterior ethmoidal bulla (control) or the polyp itself ([…]) were immediately collected for subsequent cell isolation and culture. After recovery, pNECs were isolated following a standardized procedure^32-35. […] After 18 h, Fetal Bovine Serum was added to the solution to neutralize the protease-DNase activity, and pNECs were gently scraped off the remaining tissue. […] Images were registered using AxioVisionTM 4.8 software (Carl Zeiss, Jena, Germany) and then analyzed with Image J software (NIH, Bethesda, Md., USA) to measure areas at t=0 h and t=6 h of wound healing and then to calculate the repair rates (expressed in μm^2/h).
# [2] = tested on: pNECs from CRSwNP patients; assay: Analysis of lamellipodial dynamics by kymograph, pNECs from CRSwNP patients; details: SA 0.5% + Y-27632 5 μM, 0-2 h and 2-4 h, CRSwNP pNECs (FIG. 6)
# Method: Brightfield time-lapse series were made on pNECs from patients with CRSwNP and control subjects plated in 2-well silicone culture inserts (Ibidi #80209, Fitchburg, USA) using an inverted Axio ObserverZ1 microscope equipped with a CoolSNAP™ EZ CCD camera and a 10×/0.3 NA air objective lens, and then analyzed by AxioVision™ software.
# Immediately prior to image acquisition, cells were treated with LB (control condition for SA) or LB+water (control condition for SA+Y-27632). Cells were then positioned into the incubation chamber (37° C., 5% CO2) and images were captured every minute for 2 h to observe cell protrusions and retractions. Then, cells were treated with either SA exoproducts (concentration of 0.5% (v/v)) or a mix of SA (concentration of 0.5% v/v) and Y-27632 (5 μM), with the recording pursued during the following 4 h.
# A one pixel-wide line crossing the cell membrane perpendicularly to the lamellipodia was drawn, and this region was extracted from each image of the time-lapse series, as previously described by Choi et al.^38. […] Data derived from these segmented lines were generated using “read velocity tsp macro” of ImageJ and used to calculate the length and velocity of each protrusion. At least a total of 40-110 individual protrusion events per condition and at least 14 different cells were analyzed in 3 independent time-lapse series.
# [3] = tested on: nasal epithelia from CRSwNP patients; assay: Immunofluorescence of cytoskeleton and lamellipodial cell quantification at the wound edge, nasal epithelia from CRSwNP patients; details: 4 h
# Method: pNECs were grown to confluency on coverslips (precision cover glasses thickness No. 1.5H, Marienfeld, Lauda-Konigshofen, Germany) coated with Purecol™. After injury, (3 mechanical wounds/coverslip), cell monolayers were washed and then treated with either: 1) LB (concentration of 0.5% (v/v)): negative control, 2) SA exoproducts (concentration of 0.5% (v/v) SA filtrate) and 3) SA exoproducts (concentration of 0.5% (v/v) SA filtrate) and Y-27632 (5 μM). After 4 h of repair, cell monolayers were fixed with 4% paraformaldehyde in PBS for 5 min, permeabilized with 0.1% Triton™ X-100 in PBS for 10 min. After blocking (in 1% BSA in PBS for at least 1h at 4° C.), fixed cells were incubated with the primary anti-β-tubulin antibody (1:1000 in PBS+BSA1%, Millipore, Etobicoke, Canada) for 1 h at room temperature, and then with Alexa Fluor®-488 conjugated goat anti-mouse antibody secondary antibody (1:2000 in PBS+BSA1%,1 h, room temperature Thermo Fischer Scientific, Waltham, USA). F-actin was stained with Phalloidin-Alexa Fluor® 594 (1 unit, Thermo Fischer Scientific) (in PBS+BSA1%, for 1 h at room temperature) and nuclei with DAPI (1:1000 in PBS+BSA1%, for 5 min). Coverslips were mounted with ProLong® Gold Antifade Reagent (Molecular Probes, Eugene, USA) on SuperFrost™ glass slides (Thermo Fisher Scientific). Images were acquired with an inverted confocal microscope (TCS SP5, Leica Microsystems, Wetzlar, Germany) using an oil-immersion objective 63×/1.4. On immunofluorescence images, cells at the wound edge were classified according to the categories “with” or “without” lamellipodia as well as “ambiguous morphology” (see FIG. 10)^39. Percentages of cells in each category were then calculated.
# pNEC = assay: Pilot study of Y-27632 dose on epithelial repair in pNEC
# Excerpt: pNECs were injured mechanically (3 wounds/well, 3 wells/condition), using a well-established, highly reproducible technique^32,34,37. After wounding, the cultures were washed to remove detached cells, and then randomly treated in either of the following conditions (performed in triplicate): 1) negative control: 0.5% (v/v) of LB, 2) exposure to SA exoproducts, (at both concentrations of 0.25% and 0.5% (v/v) SA filtrate), and 3) exposure to SA exoproducts (both concentrations of 0.25% and 0.5% (v/v) SA filtrate) and the ROCK inhibitor Y-27632 dihydrochloride (5 μM, Sigma-Aldrich®).
# A mark on wells allowed us to capture images of the wounds at exactly the same place at t=0 h and t=6 h using an inverted microscope with a 4× objective (Nikon Eclipse™ TE 2000). Images were registered using AxioVision™ 4.8 software (Carl Zeiss, Jena, Germany) and then analyzed with Image J software (NIH, Bethesda, Md., USA) to measure areas at t=0 h and t=6 h of wound healing and then to calculate the repair rates (expressed in μm^2/h).
# The effect of a potent Rho kinase (ROCK) inhibitor, Y-27632, on epithelial repair in pNECs exposed to SA exoproducts was assessed. It was first determined, in a pilot study, that 5 μM was the optimal dose for Y-27632 in pNEC.
# [4] = CRSwNP, SA 0.5% + vehicle (SA) or SA 0.5% + Y-27632 5 μM (SA+Y) (FIG. 7B)
smiles,measurement,setting,value
C[C@@H](N)[C@H]1CC[C@H](C(=O)Nc2ccncc2)CC1 [Y-27632],increase of repair rates compared to corresponding SA condition in the absence of Y-27632,[1]; Y-27632 5 μM co-cultured with SA 0.25%,1.86 fold
same,increase of repair rates compared to corresponding SA condition in the absence of Y-27632,[1]; Y-27632 5 μM with SA 0.5%,2.22 fold
same,length and velocity of protrusions after SA+Y vs. LB,[2],non-significant
same,cells with lamellipodia,[3]; [4],65%
same,cells without lamellipodia,[3]; [4],8%
same,lamellipodial extensions at the leading edge (cytoskeleton organization),"[3]; SA 0.5% + Y-27632 5 μM, CRSwNP (FIG. 7A)",partially restored lamellipodial extensions
same,increase in epithelial repair rate,"pNEC; 5 μM, in LB condition",23%
same,effect of increasing concentrations on pNECs,pNEC; concentrations above 5 μM,altered migration and induced pNECs apoptosis
same,optimal dose in pNEC,pNEC; pilot study,5 μM
